In patent US20120016019A1, “PHARMACEUTICAL COMPOSITION FOR TREATING OR PREVENTING CANCER” (priority 2010, published 2012):
Several values for one entry are separate records, joined by “and”; a condition that tells them apart may be missing. Equal entries are not always repeated. Where two headings read alike, the source gives them in different places.

Tests used:
C-6 = system: C-6
Protocol: (§1) Cancer cell lines HCC 1419, MCF-7, MDA-MB-468, SKBR3, PC3, HT1299, Saos-2, C-6, AsPc, MDA-MB-231, RKO, HeLa and TT, and normal cell lines HME 50 HT, BJ and CCD-1074sk were tested for changes in metabolism (XTT assay) and cell death (cell counts).
(§2) Cells were plated into 48-well Corning CellBind™ plates at densities of 20,000 cells for normal cells and 10,000˜20,000 cells for cancer cells. 24 to 48 h after plating, cells were treated with the composition according to the invention at concentrations of 4.5e-2M. The first time point treated with the composition of the invention is 0 h. At 3 days after the first treatment with the composition of the invention, medium was changed and the composition of the invention at the same concentrations were added to the cultured cells.
(§3) The XTT assay is an accepted analysis technique for viability and cytotoxicity of anticancer drugs or other pharmaceutical compositions. Cells were seeded in a 96-well tissue culture plate at a density of 10,000 cells for normal cells and 5,000 cells for cancer cells. After incubation period, the formazan dye formed was quantitated using an ELISA reader. The optimal wavelength used in experiments was 500 nm, and it was measured at 0 h, 12 h, 24 h, 48 h, 4 d and 7 d, respectively. The obtained values were generated using the software SoftMax Pro 4.8.
(§4) The cell viability was calculated according to the manufacturer's instructions as follows (the term “blank” means XTT in medium only):
(§5) Cellular cytotoxicity was calculated according to the manufacturer's instructions as follows: […]

PC-3 = conditions: for The absorbance, Mean value / The absorbance / The absorbance, group - Blank: PC-3, XTT 500 nm; for The absorbance: single wells
Protocol: as §1, §2, §3, §4, §5

HT 1299 = assay: Cell counts, HT 1299; assay type: cell-based; conditions: for cell counts: single wells
Protocol: (§6) As a result, LC-50 curves were generated in the 1st week.
(§7) In the 2nd plate, 7 d of the 1st week (LC-50) is the same as 0 h of the 2nd week (recovery).
(§8) At 0 h of the 2nd week, medium was exchanged with untreated medium for the remainder of the experiment. […] As a result, Recovery curves were generated in the 2nd week.
HT 1299 is a non-small cell lung cancer. The cells have a homozygous partial deletion of the p53 protein, and lack expression of p53 protein.

TT = assay: Cell counts, TT; assay type: cell-based
Protocol: as §6, §7, §8

Saos-2 = assay: Cell counts, Saos-2; assay type: cell-based
Protocol: Cells were harvested using Trypsin-EDTA at the designated time points. […] Two 48-well plates were used per cell line, and they were measured at 0 h, 12 h, 24 h, 48 h, 4 d and 7 d, respectively.
In the 1st plate, cells were treated with the composition according to the invention and medium was changed at 0 h and 3 d. […] As a result, LC-50 curves were generated in the 1st week.

## CC(=O)O[C@H]1C(=O)[C@@]2(C)[C@H]([C@H](OC(=O)c3ccccc3)[C@]3(O)C[C@H](OC(=O)[C@H](O)[C@@H](NC(=O)c4ccccc4)c4ccccc4)C(C)=C1C3(C)C)[C@]1(OC(C)=O)CO[C@@H]1C[C@@H]2O [Taxol]
C-6; C-6, 1st week (LC50), 0 h
  The absorbance: 2.6477 and 2.6197 and 2.482
  The absorbance, Mean value: 2.5831
  The absorbance, group - Blank: 2.0608
C-6; C-6, 1st week (LC50), 12 h
  The absorbance: 2.851 and 2.8475 and 2.6595
  The absorbance, Mean value: 2.7860
  The absorbance, group - Blank: 2.2637
C-6; C-6, 1st week (LC50), 24 h
  The absorbance: 2.6263 and 2.6408 and 2.7106
  The absorbance, Mean value: 2.6592
  The absorbance, group - Blank: 2.1369
C-6; C-6, 1st week (LC50), 48 h
  The absorbance: 2.5907 and 2.3173 and 2.5122
  The absorbance, Mean value: 2.4734
  The absorbance, group - Blank: 1.9511
C-6; C-6, 1st week (LC50), 4 d
  The absorbance: 3.4031 and 2.4181 and 2.3613
  The absorbance, Mean value: 2.7275
  The absorbance, group - Blank: 2.2052
C-6; C-6, 1st week (LC50), 7 d
  The absorbance: 2.334 and 2.3441 and 2.3017
  The absorbance, Mean value: 2.3266
  The absorbance, group - Blank: 1.8043
C-6; C-6, 2nd week (recovery), 0 h
  The absorbance: 2.7171 and 2.4409 and 2.6926
  The absorbance, Mean value: 2.6169
  The absorbance, group - Blank: 2.0945
C-6; C-6, 2nd week (recovery), 24 h
  The absorbance: 1.9908 and 2.3106 and 2.2634
  The absorbance, Mean value: 2.1883
  The absorbance, group - Blank: 1.6659
C-6; C-6, 2nd week (recovery), 48 h
  The absorbance: 3.111 and 2.4572 and 2.7053
  The absorbance, Mean value: 2.7578
  The absorbance, group - Blank: 2.2355
C-6; C-6, 2nd week (recovery), 4 d
  The absorbance: 2.6888 and 2.7862 and 2.8075
  The absorbance, Mean value: 2.7608
  The absorbance, group - Blank: 2.2385
  The viability: 0.8937
C-6; C-6, 2nd week (recovery), 7 d
  The absorbance: 2.4639 and 2.1497 and 2.4909
  The absorbance, Mean value: 2.3682
  The absorbance, group - Blank: 1.8458
C-6; rat, 12 h, 220 nM
  The cytotoxicity: 0.1898
  The viability: 0.8102
C-6; rat, 4 d, 220 nM
  The viability: 0.8804
PC-3; 1st week (LC50), 0 h
  The absorbance, Mean value: 0.693
  The absorbance: 0.7147 and 0.7027 and 0.6625
PC-3; 1st week (LC50), 12 h
  The absorbance, Mean value: 0.567
  The absorbance: 0.5126 and 0.6101 and 0.5779
PC-3; 1st week (LC50), 24 h
  The absorbance, Mean value: 0.692
  The absorbance, group - Blank: 0.5326
  The absorbance: 0.7192 and 0.6542 and 0.7011
PC-3; 1st week (LC50), 48 h
  The absorbance, Mean value: 1.747
  The absorbance, group - Blank: 1.5885
  The absorbance: 1.9128 and 1.6455 and 1.6838
PC-3; 1st week (LC50), 4 d
  The absorbance, Mean value: 1.266
  The absorbance, group - Blank: 1.1072
  The absorbance: 1.1723 and 1.5491 and 1.0768
PC-3; 2nd week (recovery), 0 h
  The absorbance, Mean value: 0.5354
  The absorbance: 0.5937 and 0.5232 and 0.4893
PC-3; 2nd week (recovery), 24 h
  The absorbance, Mean value: 1.6693
  The absorbance, group - Blank: 1.5104
  The absorbance: 1.3804 and 1.6987 and 1.9288
PC-3; 2nd week (recovery), 48 h
  The absorbance, Mean value: 0.7660
  The absorbance, group - Blank: 0.6071
  The absorbance: 0.795 and 0.7948 and 0.7081
PC-3; 2nd week (recovery), 4 d
  The absorbance, Mean value: 1.2875
  The absorbance, group - Blank: 1.1286
PC-3; human, 12 h, 220 nM
  The cytotoxicity: 0.5920
  The viability: 0.3649
HT 1299
  process of cell death (microscopy): cell membranes were ruptured by toxicity of Taxol, and then nuclei of cells changed into black
HT 1299; 1st week (LC50), 0 h
  cell counts, Mean value: 3737
HT 1299; 1st week (LC50), 12 h
  cell counts, Mean value: 3705
  cell counts: 2680 and 3085 and 5350
HT 1299; 1st week (LC50), 24 h
  cell counts, Mean value: 3252
  cell counts: 2810 and 4255 and 2690
HT 1299; 1st week (LC50), 48 h
  cell counts, Mean value: 1464
  cell counts: 1382 and 1526 and 1484
HT 1299; 1st week (LC50), 4 d
  cell counts: 488 and 536 and 712
HT 1299; 1st week (LC50), 7 d
  cell counts, Mean value: 782
  cell counts: 982 and 736
HT 1299; 2nd week (recovery), 0 h
  cell counts, Mean value: 919
  cell counts: 1193 and 789 and 776
HT 1299; 2nd week (recovery), 24 h
  cell counts, Mean value: 227
HT 1299; 2nd week (recovery), 48 h
  cell counts, Mean value: 432
  cell counts: 410 and 499 and 386
HT 1299; 2nd week (recovery), 4 d
  cell counts, Mean value: 446
  cell counts: 322 and 545 and 470
HT 1299; 2nd week (recovery), 7 d
  cell counts, Mean value: 118
  cell counts: 104 and 144 and 107
TT; 1st week (LC50), 0 h
  cell counts: 133000 and 117500 and 123000
  cell counts, Mean value: 124500
TT; 1st week (LC50), 24 h
  cell counts, Mean value: 106333
TT; 1st week (LC50), 48 h
  cell counts: 175000 and 109000 and 114000
  cell counts, Mean value: 132667
TT; 1st week (LC50), 4 d
  cell counts: 84000 and 72500 and 56000
  cell counts, Mean value: 70833
TT; 1st week (LC50), 7 d
  cell counts: 35000 and 26000
  cell counts, Mean value: 32000
TT; 2nd week (recovery), 0 h, mean value
  cell counts, Mean value: 44000
TT; 2nd week (recovery), 0 h, single count
  cell counts: 44000 and 53000 and 35000
TT; 2nd week (recovery), 24 h, mean value
  cell counts, Mean value: 17667
TT; 2nd week (recovery), 48 h, mean value
  cell counts, Mean value: 30667
TT; 2nd week (recovery), 48 h, single count
  cell counts: 35000 and 31000 and 26000
TT; 2nd week (recovery), 4 d, mean value
  cell counts, Mean value: 16667
TT; 2nd week (recovery), 4 d, single count
  cell counts: 15000 and 12500
TT; 2nd week (recovery), 7 d, mean value
  cell counts, Mean value: 11500
Saos-2
  process of cell death (microscopy): cell membranes were ruptured by toxicity of Taxol, and then nuclei of cells changed into black
Saos-2; 1st week (LC50), 0 h
  cell counts: 2143 and 2221 and 2135
  cell counts, Mean value: 2166
Saos-2; 1st week (LC50), 12 h
  cell counts: 1756 and 1790 and 1705
  cell counts, Mean value: 1750
Saos-2; 1st week (LC50), 24 h
  cell counts: 1529 and 1376 and 1452
  cell counts, Mean value: 1452
Saos-2; 1st week (LC50), 48 h
  cell counts: 857 and 822 and 776
  cell counts, Mean value: 818
Saos-2; 1st week (LC50), 4 d
  cell counts, Mean value: 420
Saos-2; 2nd week (recovery), 0 h
  cell counts, Mean value: 609
Saos-2; 2nd week (recovery), 24 h
  cell counts, Mean value: 183
Saos-2; 2nd week (recovery), 48 h
  cell counts: 312 and 249 and 165
  cell counts, Mean value: 242
Saos-2; 2nd week (recovery), 4 d
  cell counts: 416 and 589 and 602
  cell counts, Mean value: 536
Saos-2; 2nd week (recovery), 7 d
  cell counts, Mean value: 635
